These results are taken from patent US8372865B2, “Dihydropyridone amides as P2X7 modulators” (Roche Palo Alto LLC, priority 2008, dated 2013).

As usually defined, the pKi is −log10 of the Ki, conventionally taken in molar units. Read a high pKi as a low Ki.

The target of the assay is T1, P2X7 receptor (UniProt Q99572).
T1 sequence (Q99572 1-595): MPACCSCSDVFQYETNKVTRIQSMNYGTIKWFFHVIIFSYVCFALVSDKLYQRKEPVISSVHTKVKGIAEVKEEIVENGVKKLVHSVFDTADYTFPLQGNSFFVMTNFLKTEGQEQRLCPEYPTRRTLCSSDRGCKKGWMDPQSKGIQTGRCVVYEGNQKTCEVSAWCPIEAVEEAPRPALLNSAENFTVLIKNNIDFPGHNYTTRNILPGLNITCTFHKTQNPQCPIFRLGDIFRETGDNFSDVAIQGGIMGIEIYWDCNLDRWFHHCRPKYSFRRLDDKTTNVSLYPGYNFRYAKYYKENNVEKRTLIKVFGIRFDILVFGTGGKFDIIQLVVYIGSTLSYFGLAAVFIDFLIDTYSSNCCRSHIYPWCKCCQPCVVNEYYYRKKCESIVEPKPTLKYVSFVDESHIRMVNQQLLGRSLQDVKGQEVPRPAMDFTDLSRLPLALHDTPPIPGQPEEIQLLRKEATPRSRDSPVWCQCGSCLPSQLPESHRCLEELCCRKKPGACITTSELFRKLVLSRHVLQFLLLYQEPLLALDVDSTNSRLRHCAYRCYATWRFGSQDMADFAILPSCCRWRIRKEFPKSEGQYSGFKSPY
Description: pKi of Table 1 (assay not stated). Format: cell-based. On the procedure: Intracellular Calcium Flux (FLIPR) Assay
Stock solutions of compounds were prepared from powders as a 10 mM DMSO stock solution. These solutions were stored at RT during the two week period of these experiments to prevent freeze-thaw of the DMSO stocks. The DMSO stocks were added to the appropriate assay buffer at a concentration of 10 μM, and then diluted serially to the final concentrations that were tested. […] The aqueous solutions of compounds as well as ATP (Sigma A7699) and BzATP (Sigma B6396) were prepared fresh for each day of experiment.
1321N1 cells stably expressing the full length human P2X7 gene (1321N1-hP2X7) and HEK293 cells stably expressing the full length rat P2X7 gene (HEK293-rP2X7) were obtained from the Roche Cell Culture Facility. 1321N1-hP2X7 cells were grown in Dulbecco's Modified Eagle's Medium (DMEM) high glucose supplemented with 10% FBS and 250 μg/mL G418. HEK293-rP2X7 cells were grown in DMEM/F-12 supplemented with 10% FBS, 1 mM CaCl2, 2 mM MgCl2, 2 mM L-Glutamine and 500 μg/ml G418. Cells were split such that they never became>70% confluent.
On the day prior to the experiment, 1321N1-hP2X7 or HEK293-rP2X7 cells were released into suspension with calcium-free PBS+Versene and washed by centrifugation with calcium-free PBS to remove the Versene. Cells were resuspended in growth medium at a density of 2.5×10^5 cells/mL and seeded into black walled, clear bottom 96 well plates (50,000 cells/well) approximately 18 hr prior to intracellular calcium flux experiments.
On the day of the experiment, plates were washed with FLIPR buffer (calcium- and magnesium-free Hank's Balanced Salt Solution (HBSS) supplemented with 10 mM Hepes, 2.5 mM probenecid and 2 mM calcium chloride) using a BIO-TEK 96 channel plate washer and incubated with […] fluo-3 dye at 37° C. for one hr. The dye was then removed by plate washing and the cells were allowed to equilibrate for 20 min at room temperature with antagonist or vehicle (FLIPR buffer). Agonist (100 μM BzATP final concentration for hP2X7; 5 μM BzATP final concentration or rP2X7) was added online with the FLIPR and fluorescence measurements made at 1 sec intervals for 60 sec followed by 3 sec intervals for a further 4 min (5 min total). A final addition of 5 μM ionomycin was made and the maximal BzATP-evoked fluorescence normalized to the maximal ionomycin-evoked fluorescence.

Turning to `O=C1CC(c2cccc(F)c2)C(C(=O)Nc2cccc3[nH]ccc23)=CN1` (stereo not drawn) [Compound 1, 4-(3-Fluoro-phenyl)-6-oxo-1,4,5,6-tetrahydro-pyridine-3-carboxylic acid (1H-indol-4-yl)-amide], the pKi is recorded as 5.86.

In turn, `O=C1CC(c2cccc(F)c2)C(C(=O)Nc2ccc3cc[nH]c3c2)=CN1` (stereo not drawn) [Compound 2, 4-(3-Fluoro-phenyl)-6-oxo-1,4,5,6-tetrahydro-pyridine-3-carboxylic acid (1H-indol-6-yl)-amide] returned a pKi of 5.24. For the molecule `O=C1C[C@@H](c2cccc(F)c2)C(C(=O)Nc2ccc3ncccc3c2Br)=CN1` [Compound 4, (S)-4-(3-Fluoro-phenyl)-6-oxo-1,4,5,6-tetrahydro-pyridine-3-carboxylic acid (5-bromo-quinolin-6-yl)-amide], the pKi was 6.953. As for `O=C1C[C@@H](c2ccc(F)cc2)C(C(=O)Nc2cccc3ncccc23)=CN1` [Compound 5, (S)-4-(4-Fluoro-phenyl)-6-oxo-1,4,5,6-tetrahydro-pyridine-3-carboxylic acid quinolin-5-ylamide], the figure is 5.345; as for `O=C1C[C@@H](c2ccc(F)cc2)C(C(=O)Nc2ccc3ncccc3c2Br)=CN1` [Compound 6, (S)-4-(4-Fluoro-phenyl)-6-oxo-1,4,5,6-tetrahydro-pyridine-3-carboxylic acid (5-bromo-quinolin-6-yl)-amide], 7.135; as for `CCc1cc2ncccc2cc1NC(=O)C1=CNC(=O)C[C@H]1c1ccc(F)cc1` [Compound 7, (S)-4-(4-Fluoro-phenyl)-6-oxo-1,4,5,6-tetrahydro-pyridine-3-carboxylic acid (7-ethyl-quinolin-6-yl)-amide], 6.673. In turn, `CCc1c(NC(=O)C2=CNC(=O)C[C@H]2c2ccc(F)cc2)ccc2ncccc12` [Compound 8, (S)-4-(4-Fluoro-phenyl)-6-oxo-1,4,5,6-tetrahydro-pyridine-3-carboxylic acid (5-ethyl-quinolin-6-yl)-amide] gave a pKi of 7.69. In turn, `Cc1cc2ccn(CCO)c2cc1NC(=O)C1=CNC(=O)C[C@H]1c1ccc(F)cc1` [Compound 9, (S)-4-(4-Fluoro-phenyl)-6-oxo-1,4,5,6-tetrahydro-pyridine-3-carboxylic acid [1-(2-hydroxy-ethyl)-5-methyl-1H-indol-6-yl]-amide] registered a pKi of 7.71. As for `Cc1c(NC(=O)C2=CNC(=O)C[C@H]2c2cccc(F)c2)ccc2ncccc12` [Compound 10, (S)-4-(3-Fluoro-phenyl)-6-oxo-1,4,5,6-tetrahydro-pyridine-3-carboxylic acid (5-methyl-quinolin-6-yl)-amide], the figure is 6.645.

Regarding `O=C1C[C@@H](c2cccc(F)c2)C(C(=O)Nc2cc3c(cc2Br)CCC(=O)N3)=CN1` [Compound 11, (S)-4-(3-Fluoro-phenyl)-6-oxo-1,4,5,6-tetrahydro-pyridine-3-carboxylic acid (6-bromo-2-oxo-1,2,3,4-tetrahydro-quinolin-7-yl)-amide], the pKi was determined as 5.415.

`Cc1ccc2ncccc2c1NC(=O)C1=CNC(=O)C[C@H]1c1cccc(F)c1` [Compound 12, (S)-4-(3-Fluoro-phenyl)-6-oxo-1,4,5,6-tetrahydro-pyridine-3-carboxylic acid (6-methyl-quinolin-5-yl)-amide] gave a pKi of 7.695.

`CN1C(=O)CCc2cc(Br)c(NC(=O)C3=CNC(=O)C[C@H]3c3ccc(F)cc3)cc21` [Compound 13, (S)-4-(4-Fluoro-phenyl)-6-oxo-1,4,5,6-tetrahydro-pyridine-3-carboxylic acid (6-bromo-1-methyl-2-oxo-1,2,3,4-tetrahydro-quinolin-7-yl)-amide] displayed a pKi of 6.9. The figure for `O=C1C[C@@H](c2ccc(F)cc2)C(C(=O)Nc2cccc3cnccc23)=CN1` [Compound 14, (S)-4-(4-Fluoro-phenyl)-6-oxo-1,4,5,6-tetrahydro-pyridine-3-carboxylic acid isoquinolin-5-ylamide] is 6.425; for `Cc1ccc2c(NC(=O)C3=CNC(=O)C[C@H]3c3ccc(F)cc3)cccc2n1` [Compound 15, (S)-4-(4-Fluoro-phenyl)-6-oxo-1,4,5,6-tetrahydro-pyridine-3-carboxylic acid (2-methyl-quinolin-5-yl)-amide] it is 7.46; for `CCc1cc2ccn(CCO)c2cc1NC(=O)C1=CNC(=O)C[C@H]1c1ccc(F)cc1` [Compound 16, (S)-4-(4-Fluoro-phenyl)-6-oxo-1,4,5,6-tetrahydro-pyridine-3-carboxylic acid [5-ethyl-1-(2-hydroxy-ethyl)-1H-indol-6-yl]-amide] it is 7.575. The figure for `Cc1c(NC(=O)C2=CNC(=O)C[C@H]2c2ccc(F)cc2)ccc2ncccc12` [Compound 17, (S)-4-(4-Fluoro-phenyl)-6-oxo-1,4,5,6-tetrahydro-pyridine-3-carboxylic acid (5-methyl-quinolin-6-yl)-amide] is 6.805. With `Cc1cc2c(cc1NC(=O)C1=CNC(=O)C[C@H]1c1ccc(F)cc1)N(C)C(=O)CC2` [Compound 18, (S)-4-(4-Fluoro-phenyl)-6-oxo-1,4,5,6-tetrahydro-pyridine-3-carboxylic acid (1,6-dimethyl-2-oxo-1,2,3,4-tetrahydro-quinolin-7-yl)-amide], the pKi is reported as 7.16. As for `O=C1C[C@@H](c2ccc(F)cc2)C(C(=O)Nc2cc3c(cc2Br)CCC(=O)N3CCO)=CN1` [Compound 19, (S)-4-(4-Fluoro-phenyl)-6-oxo-1,4,5,6-tetrahydro-pyridine-3-carboxylic acid [6-bromo-1-(2-hydroxy-ethyl)-2-oxo-1,2,3,4-tetrahydro-quinolin-7-yl]-amide], the figure is 5.535. The figure for `Cc1cc2ncccc2cc1NC(=O)C1=CNC(=O)C[C@H]1c1cccc(F)c1` [Compound 20, (S)-4-(3-Fluoro-phenyl)-6-oxo-1,4,5,6-tetrahydro-pyridine-3-carboxylic acid (7-methyl-quinolin-6-yl)-amide] is 6.825; for `O=C1C[C@@H](c2cccc(F)c2)C(C(=O)Nc2cc3c(cc2Br)OCC(=O)N3)=CN1` [Compound 21, (S)-4-(3-Fluoro-phenyl)-6-oxo-1,4,5,6-tetrahydro-pyridine-3-carboxylic acid (7-bromo-3-oxo-3,4-dihydro-2H-benzo[1,4]oxazin-6-yl)-amide] it is 5.925; for `CN1C(=O)COc2cc(Br)c(NC(=O)C3=CNC(=O)C[C@H]3c3cccc(F)c3)cc21` [Compound 22, (S)-4-(3-Fluoro-phenyl)-6-oxo-1,4,5,6-tetrahydro-pyridine-3-carboxylic acid (7-bromo-4-methyl-3-oxo-3,4-dihydro-2H-benzo[1,4]oxazin-6-yl)-amide] it is 6.905. `Cc1cc2c(cc1NC(=O)C1=CNC(=O)C[C@H]1c1ccc(F)cc1)N(C)C(=O)CO2` [Compound 23, (S)-4-(4-Fluoro-phenyl)-6-oxo-1,4,5,6-tetrahydro-pyridine-3-carboxylic acid (4,7-dimethyl-3-oxo-3,4-dihydro-2H-benzo[1,4]oxazin-6-yl)-amide] gave a pKi of 6.73. The figure for `Cc1cc2c(cc1NC(=O)C1=CNC(=O)C[C@H]1c1cccc(F)c1)N(C)C(=O)CO2` [Compound 24, (S)-4-(3-Fluoro-phenyl)-6-oxo-1,4,5,6-tetrahydro-pyridine-3-carboxylic acid (4,7-dimethyl-3-oxo-3,4-dihydro-2H-benzo[1,4]oxazin-6-yl)-amide] is 7.015; for `CCc1cc2c(cc1NC(=O)C1=CNC(=O)C[C@H]1c1ccc(F)cc1)N(C)C(=O)CO2` [Compound 25, (S)-4-(4-Fluoro-phenyl)-6-oxo-1,4,5,6-tetrahydro-pyridine-3-carboxylic acid (7-ethyl-4-methyl-3-oxo-3,4-dihydro-2H-benzo[1,4]oxazin-6-yl)-amide] it is 6.88.
